Experimental findings from ChEMBL document CHEMBL5352406 (Eur J Med Chem, 2022) are described below.

For one assay, the target named is Acetylcholinesterase (Electrophorus electricus, UniProt O42275). The assay can be described thus: Inhibition of electric eel AChE using acetylthiocholine […] as substrate for 20 mins by Ellman's method.
A further assay concerns HCT-116. Put plainly: Antiproliferative activity against human HCT-116 cells assessed as cell growth inhibition after 72 hrs by MTT assay. The assay is classed as functional.
In the next assay the test system is SW480. The assay can be described thus: Antiproliferative activity against human SW480 cells assessed as cell growth inhibition after 72 hrs by MTT assay. The assay is classed as functional.
Assay [1] has as its target CDK2/Cyclin A2 (Homo sapiens) (UniProt P24941+P20248). The assay can be described thus: Inhibition of human full length CDK2/CyclinA2 at 500 nM by ADP-Glo kinase assay relative to control. Type of assay: protein-complex assay.
For another assay, the system named is MCF7. The assay can be described thus: Antiproliferative activity against human MCF7 cells assessed as cell growth inhibition after 72 hrs by MTT assay. The assay is classed as functional.
Another assay has as its target Cholinesterase (Equus caballus, UniProt P81908). The assay can be described thus: Inhibition of equine serum BuChE using […] as substrate for 20 mins by Ellman's method.
Assay [2] has as its target CDK9/cyclin T1 (Homo sapiens) (UniProt O60563+P50750). Put plainly: Inhibition of CDK9/CyclinT1 (unknown origin) at 500 nM by ADP-Glo kinase assay relative to control. The assay is classed as protein-complex assay.
A further assay relates to A549. The assay can be described thus: Antiproliferative activity against human A549 cells assessed as cell growth inhibition after 72 hrs by MTT assay. Type of assay: functional.
In a further assay the target is CDK2/Cyclin A2 (Homo sapiens, UniProt P24941). Type of assay: protein-complex assay.
The target in a further assay is CDK9/cyclin T1 (Homo sapiens, UniProt P50750).
Sequence of CDK9/cyclin T1 (O60563 whole entry): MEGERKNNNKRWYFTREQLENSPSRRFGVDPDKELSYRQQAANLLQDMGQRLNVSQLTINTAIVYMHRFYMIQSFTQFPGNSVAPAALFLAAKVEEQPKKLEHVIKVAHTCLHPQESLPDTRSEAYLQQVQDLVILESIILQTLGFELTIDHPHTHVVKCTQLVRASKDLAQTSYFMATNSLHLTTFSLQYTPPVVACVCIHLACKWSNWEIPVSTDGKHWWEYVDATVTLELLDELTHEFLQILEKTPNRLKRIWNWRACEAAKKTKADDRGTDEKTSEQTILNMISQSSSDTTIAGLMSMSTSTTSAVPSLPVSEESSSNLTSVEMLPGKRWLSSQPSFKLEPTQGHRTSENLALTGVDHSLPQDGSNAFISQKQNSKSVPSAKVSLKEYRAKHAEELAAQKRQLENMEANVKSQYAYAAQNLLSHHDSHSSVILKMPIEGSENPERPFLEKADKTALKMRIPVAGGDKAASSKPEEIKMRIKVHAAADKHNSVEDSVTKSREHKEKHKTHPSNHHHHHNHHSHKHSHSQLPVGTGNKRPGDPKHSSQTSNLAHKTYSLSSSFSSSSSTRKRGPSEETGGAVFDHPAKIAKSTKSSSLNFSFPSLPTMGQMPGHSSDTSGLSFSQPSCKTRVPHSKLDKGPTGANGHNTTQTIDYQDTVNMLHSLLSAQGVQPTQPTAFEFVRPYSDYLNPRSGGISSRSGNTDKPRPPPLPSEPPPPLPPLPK
Sequence of CDK9/cyclin T1 (P50750 whole entry): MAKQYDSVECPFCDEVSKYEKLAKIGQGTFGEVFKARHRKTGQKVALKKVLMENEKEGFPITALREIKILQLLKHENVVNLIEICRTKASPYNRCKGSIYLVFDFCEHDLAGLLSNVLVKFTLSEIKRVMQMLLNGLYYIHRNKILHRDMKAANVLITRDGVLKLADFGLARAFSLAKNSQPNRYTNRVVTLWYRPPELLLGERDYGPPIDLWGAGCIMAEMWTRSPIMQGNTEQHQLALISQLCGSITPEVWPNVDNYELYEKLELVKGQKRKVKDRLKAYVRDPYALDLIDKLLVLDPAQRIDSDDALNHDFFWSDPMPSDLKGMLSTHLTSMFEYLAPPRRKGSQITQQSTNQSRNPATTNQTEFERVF
Assay [3] is described as follows: Selectivity index, ratio of IC50 for equine serum BuChE to IC50 for CDK9/CyclinT1 (unknown origin).
Assay [4] in a line: Selectivity index, ratio of IC50 for electric eel AChE to IC50 for CDK9/CyclinT1 (unknown origin).
Assay [5] is described as follows: Selectivity index, ratio of IC50 for human full length CDK2/CyclinA to IC50 for CDK9/CyclinT1 (unknown origin).

SMILES strings stand for the structures. Some results are limits rather than exact numbers.

Sequence of Acetylcholinesterase (O42275 whole entry): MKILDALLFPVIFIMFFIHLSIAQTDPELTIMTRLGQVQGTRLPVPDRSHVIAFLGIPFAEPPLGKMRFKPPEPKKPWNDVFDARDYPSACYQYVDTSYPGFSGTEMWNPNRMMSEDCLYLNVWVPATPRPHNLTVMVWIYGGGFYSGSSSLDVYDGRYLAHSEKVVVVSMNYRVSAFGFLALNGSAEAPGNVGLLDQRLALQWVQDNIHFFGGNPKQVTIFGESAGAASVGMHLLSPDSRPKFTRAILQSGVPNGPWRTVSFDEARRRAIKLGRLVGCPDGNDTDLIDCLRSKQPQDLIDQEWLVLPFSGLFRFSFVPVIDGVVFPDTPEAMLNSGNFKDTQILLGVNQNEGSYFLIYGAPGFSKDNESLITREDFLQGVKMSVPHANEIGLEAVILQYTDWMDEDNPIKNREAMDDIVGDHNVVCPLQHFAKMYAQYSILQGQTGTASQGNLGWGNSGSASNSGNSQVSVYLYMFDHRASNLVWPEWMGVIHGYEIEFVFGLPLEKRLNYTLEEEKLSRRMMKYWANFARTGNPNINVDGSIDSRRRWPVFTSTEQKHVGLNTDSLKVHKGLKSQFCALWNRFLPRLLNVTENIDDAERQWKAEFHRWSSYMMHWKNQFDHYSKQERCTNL
Sequence of Cholinesterase (P81908 whole entry): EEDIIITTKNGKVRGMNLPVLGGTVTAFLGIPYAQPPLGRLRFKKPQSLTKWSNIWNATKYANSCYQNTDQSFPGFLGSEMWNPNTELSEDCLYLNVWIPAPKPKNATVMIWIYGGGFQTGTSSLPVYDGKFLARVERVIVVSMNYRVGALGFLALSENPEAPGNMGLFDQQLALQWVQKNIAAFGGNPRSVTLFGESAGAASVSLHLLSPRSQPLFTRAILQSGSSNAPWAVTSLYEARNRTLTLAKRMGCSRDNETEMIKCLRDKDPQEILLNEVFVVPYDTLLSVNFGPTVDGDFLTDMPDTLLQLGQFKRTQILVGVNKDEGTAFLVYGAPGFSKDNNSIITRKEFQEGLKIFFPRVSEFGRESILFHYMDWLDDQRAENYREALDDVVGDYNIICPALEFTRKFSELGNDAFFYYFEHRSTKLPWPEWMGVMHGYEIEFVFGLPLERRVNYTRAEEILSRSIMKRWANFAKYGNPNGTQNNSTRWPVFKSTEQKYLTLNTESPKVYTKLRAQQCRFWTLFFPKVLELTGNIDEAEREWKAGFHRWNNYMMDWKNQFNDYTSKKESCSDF

In the case of `CS(=O)(=O)c1ccc(Nc2cc(-c3ccc4nc5c(c(N6CC[C@H](N)C6)c4c3)CCCCC5)ccn2)cc1`, the values for the IC50 against Acetylcholinesterase and against Cholinesterase were 24.2 µM and 3.05 µM, respectively. For the same molecule, the GI50 with HCT-116 worked out at 3.01 µM; in the assay with SW480 it was 3.52 µM; in the assay on MCF7, 3.16 µM; with A549, 2.78 µM. Also, the inhibition in assay [1] was found to be 90.1%; in assay [2], 80.2%.

`N[C@H]1CCN(c2c3c(nc4ccc(-c5ccnc(Nc6cccc(S(=O)(=O)N7CCOCC7)c6)c5)cc24)CCCCC3)C1`: the values for the IC50 on Acetylcholinesterase, on CDK2/Cyclin A2 and at Cholinesterase were 28.5 µM, greater than 0.5 µM and 1.98 µM, respectively. For the same molecule, the GI50 with HCT-116 came to 2 µM; in the assay with SW480 it was 3.2 µM; in the assay on MCF7, 3.44 µM; in the assay on A549, 3.3 µM. The molecule further displayed an inhibition in assay [2] of 57.5%.

Regarding `N[C@H]1CCN(c2c3c(nc4ccc(-c5ccnc(F)c5)cc24)CCCCC3)C1`, the IC50 is 21.4 µM against Acetylcholinesterase, greater than 0.5 µM at CDK2/Cyclin A2 and 2.25 µM on Cholinesterase. In addition, the GI50 with HCT-116 stood at 3.98 µM; in the assay with SW480, 4.69 µM; in the assay on MCF7, 7.08 µM; in the assay on A549, 8.44 µM. In addition, in [2], the inhibition was 73%.

Turning to `N[C@H]1CCN(c2c3c(nc4ccc(-c5ccnc(Nc6ccc(S(=O)(=O)N7CCNCC7)cc6)c5)cc24)CCCCC3)C1`, the results for the IC50 against Acetylcholinesterase, against Cholinesterase and at CDK9/cyclin T1 were 19.5 µM, 2.82 µM and greater than 0.5 µM, respectively. The GI50 in the assay with HCT-116 was 5.83 µM; with SW480, 7.8 µM; in the assay with MCF7, 11.6 µM; in the assay with A549, 7.53 µM. Besides, the inhibition in assay [1] came out at 84%.

For `N[C@H]1CCN(c2c3c(nc4ccc(-c5ccnc(Nc6ccc(S(=O)(=O)N7CCCC7)cc6)c5)cc24)CCCCC3)C1`, the IC50 on Acetylcholinesterase is greater than 50 µM; against Cholinesterase, 4.96 µM; against CDK9/cyclin T1, greater than 0.5 µM. In addition, the GI50 in the assay on HCT-116 worked out at 6.02 µM; in the assay with SW480, 3.52 µM; with MCF7, 3.24 µM; with A549, 2.69 µM. The same molecule came in with an inhibition in assay [1] of 74.8%.

`N[C@H]1CCN(c2c3c(nc4ccc(-c5ccnc(NC(=O)C6CC6)n5)cc24)-c2ccccc2CCC3)C1`: the IC50 on Acetylcholinesterase was greater than 50 µM; on CDK2/Cyclin A2 it was greater than 0.5 µM; on Cholinesterase, 12.7 µM. For the same molecule, the concentration for 50% growth inhibition (GI50) is greater than 10 µM in the assay with HCT-116, 9.53 µM in the assay with SW480, 6.33 µM in the assay on MCF7 and 9.47 µM in the assay on A549. Also, the inhibition in [2] was determined as 72.7%.

On to `N[C@H]1CCN(c2c3c(nc4ccc(-c5ccnc(NC(=O)C6CCC6)c5)cc24)CCCCC3)C1`, for which the results for the Selectivity Index in assay [3], in [4] and in [5] were 288, 4290 and 3, respectively. For the same molecule, the IC50 at Acetylcholinesterase worked out at 17.6 µM; on CDK2/Cyclin A2, 0.0107 µM; at Cholinesterase it was 1.18 µM; against CDK9/cyclin T1, 0.00411 µM. Also, the GI50 turned out to be 0.086 µM in the assay with HCT-116, 0.08 µM with SW480, 0.168 µM with MCF7 and 0.077 µM with A549.

Turning to `N[C@H]1CCN(c2c3c(nc4ccc(-c5ccnc(NC(=O)C6CCC6)c5)cc24)CCC3)C1`, the Selectivity Index worked out at 497 in assay [3], 275 in [4] and 13 in assay [5]. Further, the IC50 against Acetylcholinesterase stood at 1.76 µM; against CDK2/Cyclin A2 it was 0.086 µM; against Cholinesterase it was 3.18 µM; at CDK9/cyclin T1, 0.00639 µM. In addition, the GI50 in the assay on HCT-116 came out at 0.138 µM; in the assay on SW480, 0.456 µM; in the assay on MCF7, 0.333 µM; in the assay with A549, 0.195 µM.

For the molecule `N[C@H]1CCN(c2c3c(nc4ccc(-c5ccnc(NC(=O)C6CC6)c5)cc24)CCC3)C1`, the values for the Selectivity Index in assay [3], in assay [4] and in assay [5] were 1790, 671 and 75, respectively. Also, the IC50 on Acetylcholinesterase is 2.25 µM; on CDK2/Cyclin A2, 0.252 µM; on Cholinesterase it was 6.01 µM; on CDK9/cyclin T1, 0.00336 µM. The GI50 in the assay with HCT-116 turned out to be 0.073 µM; with SW480 it was 0.251 µM; in the assay with MCF7, 0.203 µM; in the assay with A549, 0.191 µM.
